In PubChem BioAssay AID1963848 (Molecular Pharmacology Branch, DTP, NCI, 2024):

Tested on: 379773-124-R-J2-PDC spheroid viability
Assay: Anticancer human tumor 379773-124-R-J2-PDC patient-derived endometrial carcinoma cell line growth inhibition [POLQ]
Details: spheroids with HUVEC and MSC; for IC50: curve of first compound; for viability, T/C: stronger effect = lower value
Method in brief: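 Growth inhibition in 3D: complex spheroids (tumor PDC, HUVEC, MSC) treated with POLQ inhibitor combinations; where Cmax unknown, highest tested concentration 10 microM, except SN-38 at 1 microM.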

[1] = second compound 0.0316 µM, first compound 0.0316 µM
[2] = second compound 0.0316 µM, first compound 0.1 µM
[3] = second compound 0.0316 µM, first compound 0.316 µM
[4] = second compound 0.0316 µM, first compound 1 µM
[5] = second compound 0.0316 µM, first compound 3.16 µM
[6] = second compound 0.0316 µM, first compound 10 µM
[7] = second compound 0.1 µM, first compound 0.0316 µM
[8] = second compound 0.1 µM, first compound 0.1 µM
[9] = second compound 0.1 µM, first compound 0.316 µM
[10] = second compound 0.1 µM, first compound 1 µM
[11] = second compound 0.1 µM, first compound 3.16 µM
[12] = second compound 0.1 µM, first compound 10 µM
[13] = second compound 0.316 µM, first compound 0.0316 µM
[14] = second compound 0.316 µM, first compound 0.1 µM
[15] = second compound 0.316 µM, first compound 0.316 µM
[16] = second compound 0.316 µM, first compound 1 µM
[17] = second compound 0.316 µM, first compound 3.16 µM
[18] = second compound 0.316 µM, first compound 10 µM
[19] = second compound 1 µM, first compound 0.0316 µM
[20] = second compound 1 µM, first compound 0.1 µM
[21] = second compound 1 µM, first compound 0.316 µM
[22] = second compound 1 µM, first compound 1 µM
[23] = second compound 1 µM, first compound 3.16 µM
[24] = second compound 1 µM, first compound 10 µM
[25] = second compound 3.16 µM, first compound 0.0316 µM
[26] = second compound 3.16 µM, first compound 0.1 µM
[27] = second compound 3.16 µM, first compound 0.316 µM
[28] = second compound 3.16 µM, first compound 1 µM
[29] = second compound 3.16 µM, first compound 3.16 µM
[30] = second compound 3.16 µM, first compound 10 µM
[31] = second compound 10 µM, first compound 0.0316 µM
[32] = second compound 10 µM, first compound 0.1 µM
[33] = second compound 10 µM, first compound 0.316 µM
[34] = second compound 10 µM, first compound 1 µM
[35] = second compound 10 µM, first compound 3.16 µM
[36] = second compound 10 µM, first compound 10 µM
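Further: spheroids exposed to drugs for seven days before readout.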
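Wherever viability, T/C is given: percent viability relative to DMSO vehicle control taken as 100%.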

C=CC(=O)N1CCN(c2nc(=O)n(-c3c(C)ccnc3C(C)C)c3nc(-c4c(O)cccc4F)c(F)cc23)C(C)C1 (stereo unspecified) + Cc1cccc(N(C)C(=O)C2C(O)CCN2c2nc(C)cc(C(F)(F)F)c2C#N)c1
IC50 (second compound 0.0316 µM): > 10 µM | IC50 (second compound 0.1 µM): > 10 µM | IC50 (second compound 0.316 µM): > 10 µM | IC50 (second compound 1 µM): > 10 µM | IC50 (second compound 3.16 µM): > 10 µM | IC50 (second compound 10 µM): > 10 µM | viability, T/C [1]: 88.5% | viability, T/C [2]: 89.8% | viability, T/C [3]: 82% | viability, T/C [4]: 105% | viability, T/C [5]: 77.1% | viability, T/C [6]: 76.2% | viability, T/C [7]: 84.9% | viability, T/C [8]: 77.8% | viability, T/C [9]: 87.7% | viability, T/C [10]: 74.4% | viability, T/C [11]: 80.4% | viability, T/C [12]: 86.1% | viability, T/C [13]: 91% | viability, T/C [14]: 70.4% | viability, T/C [15]: 82.8% | viability, T/C [16]: 85% | viability, T/C [17]: 95.8% | viability, T/C [18]: 75.7% | viability, T/C [19]: 80% | viability, T/C [20]: 81.1% | viability, T/C [21]: 95.2% | viability, T/C [22]: 75.2% | viability, T/C [23]: 87.4% | viability, T/C [24]: 64.2% | viability, T/C [25]: 84.4% | viability, T/C [26]: 90.3% | viability, T/C [27]: 87.3% | viability, T/C [28]: 86.3% | viability, T/C [29]: 86.6% | viability, T/C [30]: 78.9% | viability, T/C [31]: 78% | viability, T/C [32]: 82.1% | viability, T/C [33]: 91.8% | viability, T/C [34]: 73.5% | viability, T/C [35]: 82.8% | viability, T/C [36]: 84.3%

Nc1ccn(C2OC(CO)C(O)C2(F)F)c(=O)n1 (stereo unspecified) + COC1C(OC(N)=O)C(O)C(Oc2ccc3c(O)c(NC(=O)c4ccc(O)c(CC=C(C)C)c4)c(=O)oc3c2C)OC1(C)C
IC50 (second compound 0.0316 µM): < 0.0316 µM | IC50 (second compound 0.1 µM): < 0.0316 µM | IC50 (second compound 0.316 µM): < 0.0316 µM | IC50 (second compound 1 µM): < 0.0316 µM | IC50 (second compound 3.16 µM): < 0.0316 µM | IC50 (second compound 10 µM): < 0.0316 µM | viability, T/C [1]: 14.1% | viability, T/C [2]: 7.21% | viability, T/C [3]: 8.07% | viability, T/C [4]: 10.4% | viability, T/C [5]: 7.9% | viability, T/C [6]: 5.28% | viability, T/C [7]: 13.9% | viability, T/C [8]: 7.13% | viability, T/C [9]: 9.39% | viability, T/C [10]: 8.07% | viability, T/C [11]: 8.46% | viability, T/C [12]: 7.04% | viability, T/C [13]: 14.2% | viability, T/C [14]: 9.44% | viability, T/C [15]: 8.7% | viability, T/C [16]: 9.16% | viability, T/C [17]: 11.3% | viability, T/C [18]: 9.38% | viability, T/C [19]: 19.4% | viability, T/C [20]: 7.26% | viability, T/C [21]: 9.54% | viability, T/C [22]: 8.14% | viability, T/C [23]: 9.07% | viability, T/C [24]: 7.06% | viability, T/C [25]: 16.1% | viability, T/C [26]: 7.44% | viability, T/C [27]: 8.41% | viability, T/C [28]: 9.67% | viability, T/C [29]: 7.02% | viability, T/C [30]: 6.42% | viability, T/C [31]: 17.5% | viability, T/C [32]: 5.7% | viability, T/C [33]: 9.27% | viability, T/C [34]: 8.67% | viability, T/C [35]: 8.15% | viability, T/C [36]: 8.46%

CC1COCCN1c1cc(C2(S(C)(=N)=O)CC2)nc(-c2ccnc3[nH]ccc23)n1 (stereo unspecified) + COC1C(OC(N)=O)C(O)C(Oc2ccc3c(O)c(NC(=O)c4ccc(O)c(CC=C(C)C)c4)c(=O)oc3c2C)OC1(C)C
IC50 (second compound 0.0316 µM): 1.91 µM | IC50 (second compound 0.1 µM): 1.85 µM | IC50 (second compound 0.316 µM): 1.78 µM | IC50 (second compound 1 µM): 1.93 µM | IC50 (second compound 3.16 µM): 1.79 µM | IC50 (second compound 10 µM): 1.67 µM | viability, T/C [1]: 100% | viability, T/C [2]: 86.1% | viability, T/C [3]: 78.5% | viability, T/C [4]: 78.2% | viability, T/C [5]: 28.9% | viability, T/C [6]: 5.71% | viability, T/C [7]: 92% | viability, T/C [8]: 85.2% | viability, T/C [9]: 91.3% | viability, T/C [10]: 79.9% | viability, T/C [11]: 24% | viability, T/C [12]: 5.69% | viability, T/C [13]: 91.1% | viability, T/C [14]: 82.1% | viability, T/C [15]: 77.1% | viability, T/C [16]: 75.7% | viability, T/C [17]: 24.9% | viability, T/C [18]: 7.92% | viability, T/C [19]: 87% | viability, T/C [20]: 82.1% | viability, T/C [21]: 87% | viability, T/C [22]: 79% | viability, T/C [23]: 28% | viability, T/C [24]: 7.44% | viability, T/C [25]: 78% | viability, T/C [26]: 88.2% | viability, T/C [27]: 81.5% | viability, T/C [28]: 67.5% | viability, T/C [29]: 32.6% | viability, T/C [30]: 8.77% | viability, T/C [31]: 85.6% | viability, T/C [32]: 74.4% | viability, T/C [33]: 79.8% | viability, T/C [34]: 61.7% | viability, T/C [35]: 34.5% | viability, T/C [36]: 5.53%
